Data: patent US12600696B2 (XENIOPRO GMBH, priority 2017, dated 2026)

Legend:
[1] = system: HeLa cells (human cervical adenocarcinoma cells); test: alamarBlue proliferation assay with HeLa cells; format: cell-based; settings: relative to DMSO basis level 1.0
Procedure: The antiproliferative activities of compounds falling under formula I, formula II, formula III, formula IV and formula V were investigated on cells or cell lines originating from a disorder of the myeloid cell compartment, the neuroendocrine system, the cervix, and the mucosal epithelium, as well as from the skin epithelium. To this end, HL-60 cells, TT cells, HeLa cells, CAL-27 cells and human primary epidermal keratinocytes (HPEK) were seeded into 96-well plates suitable for fluorescence assays (CORNING #3598) at following initial cell numbers: 1000 cells per well for HL-60; 9000 cells per well for TT; 2000 cells per well for HeLa, 2000 cells per well for CAL-27, 2000 cells per well for HPEK. […] The readout was taken with a multi-well plate-reader in the fluorescence mode with applying a filter for excitation at 560 nm (band width 10 nm) and for emission at 590 nm (band width 10 nm). […]
The assays were performed in duplicate or more replicates of independent single experiments each containing a six-fold replicate for every condition. For every individual plate, the measured fluorescence intensity values of the conditions with compound treatment were normalized against the corresponding equally weighted arithmetic mean of the fluorescence intensity values of the six DMSO treated control wells in order to obtain the relative values to a baseline level of 1.0. […]

[2] = system: C2C12 cells (murine myoblast cells); test: alamarBlue proliferation assay with C2C12 cells; format: cell-based; settings: 40 μM, 3 days treatment, single assay (preliminary), relative to DMSO basis level 1.0
Procedure: Compounds were tested on C2C12 cells using the alamarBlue® proliferation assay in analogy to the above described method with seeding the cells at an initial number of 2000 cells per 96-well and a duration of treatment with compounds for 3 days.
In one embodiment, two compounds of the invention were found so far to inhibit the growth of C2C12 cells (murine myoblast cells) obtainable from the Deutsche Sammlung von Mikroorganismen and Zellkulturen GmbH (DSMZ) under the accession number ACC 565. C2C12 cells were cultivated according to the protocol of the provider in RPMI 1640 medium (Fisherscientific, #11554526) containing 10% fetal bovine serum (Fisherscientific, #15517589).
A compound is considered as a growth inhibitor of C2C12 cells, if—at a reference concentration of 40 μM—the equally weighted arithmetic mean (AVE) of the six normalized fluorescence intensity values after addition of the corresponding standard deviation amounts to 0.9 or lower, in particular to 0.8 or lower, 0.7 or lower, 0.6 or lower, 0.4 or lower, and 0.2 or lower, relative to the overall basis level of 1.0. The overall basis level was calculated as the equally weighted arithmetic mean (AVE) of the six normalized values from the DMSO control measurements in analogy to the calculations performed for the test-compounds. […]

What does the source list for `Oc1ccc(C=Cc2cc(O)cc(O)c2)cc1` [RES, resveratrol, reference compound]?
weighted arithmetic mean (AVEw) of normalized fluorescence intensity, activity range ([1]; 40 μM): 0.4 ± 0.0; weighted arithmetic mean (AVEw) of normalized fluorescence intensity ([1]; control RES at 20 μM): 0.9 ± 0.0; equally weighted arithmetic mean (AVE) of six normalized fluorescence intensity values, activity range [2]: 0.3 ± 0.0
